In patent US20240425545A1 (Durect Corporation, priority 2021, published 2024):
Entries after “also recorded” stand apart in the source; their conditions may differ. Read-outs that look alike come from different tables or passages of the source.

Tests used:
[1] = Dynamic vapor sorption (DVS); format: physicochemical; details: for Hygroscopicity: in words, up to about 95% relative humidity
From the text: Dynamic vapor sorption data was collected on a Surface Measurement System DVS Intrinsic instrument. The samples were not dried prior to analysis. […] Data were not corrected for the initial moisture content of the sample.

[2] = Experimental: Four vials were prepared and stored at 2-8° C. or […] according to Table B2. The samples were scheduled initially to pull for testing at 3 weeks and 6 weeks time points.
For appearance, each unopened vial was visually examined for color, clumping, and flowability.
Based on the molecular weights, and expected UV response factors used in this study, the expected analytical sample concentrations were within the range of the 25HC3S sodium reference standards (0.75 mg/mL to 1.25 mg/mL as 25HC3S Sodium Salt).
Samples were prepared by pipetting 20 mL of 100% methanol into each vial and mixing well, with sonication and vortexing to fully dissolve the samples for HPLC analysis.
HPLC analysis was performed.

[3] = remark: listed apart in the source
Experimental: Angle of repose is measured as follows. Powder is poured from a funnel onto a flat surface until a cone of powder is created. The angle of repose is calculated according to the following equation: […]
The height of the cone was estimated with calipers.

[4] = 5 mL cylinder, 300 taps
Experimental: Although there are some variations in the method of determining the compressibility index and Hausner ratio, the basic procedure is to measure the unsettled apparent volume, VO, and the final tapped volume, Vf, of the powder after tapping the material until no further volume changes occur. The compressibility index and the Hausner ratio are calculated as follows: […]
Powder was carefully poured into a 5 mL glass graduated cylinder (to contain) until it was close to or at 5.0 mL. This initial volume was recorded as Vo. The graduated cylinder was tapped on a hard surface for 200 times and the volume was recorded. The cylinder was tapped 100 times more, and the final volume Vf was recorded.

| Structure (SMILES) | X-ray powder diffraction pattern after DVS ([1]; before vs after DVS, FIG. 3) | Hygroscopicity [1] | Hygroscopicity ([1]; listed as crystalline 25HC3S choline) | Physical and chemical solid-state stability, comments [2] | Temperature stability [2] | % Recovery of 2-8° C./3 wk vs 60° C./1 wk; 2-8° C./5 wk vs 80° C./5 wk ([2]; 3 wk) [%] | % Recovery of 2-8° C./3 wk vs 60° C./1 wk; 2-8° C./5 wk vs 80° C./5 wk ([2]; 5 wk) [%] | Angle of Repose ([3]; about 2 g powder, cone of 21.14 mm diameter) [degrees] | Angle of Repose Rounded Whole Number ([3]; rounded) [degrees] | Compressibility Index [4] | Hausner Ratio [4] | Weight gain (water uptake) in DVS ([1]; from 5% up to about 95% relative humidity) |
| --- | --- | --- | --- | --- | --- | --- | --- | --- | --- | --- | --- | --- |
| C[C@H](CCCC(C)(C)O)[C@H]1CC[C@H]2[C@@H]3CC=C4C[C@@H](OS(=O)(=O)[O-])CC[C@]4(C)[C@H]3CC[C@]12C.C[N+](C)(C)CCO [25HC3S choline, 25-Hydroxy-Cholest-5-En-3-Sulfate Choline] | does not appreciably change | less hygroscopic | not appreciably hygroscopic; also recorded: less hygroscopic | Stable after 5 weeks at 80 °C physically and | good temperature stability | 100.8 | 97.3 | 34.9 | 35 | 42 | 1.72 |  |
| C[C@H](CCCC(C)(C)O)[C@H]1CC[C@H]2[C@@H]3CC=C4C[C@@H](OS(=O)(=O)[O-])CC[C@]4(C)[C@H]3CC[C@]12C.[Na+] [crystalline 25HC3S sodium, reference compound] |  |  |  |  |  |  |  |  |  |  |  | significant water uptake |
